What was measured:
Format in all cases: cell-based
ANGPTL3 = assay: RNA-seq of ANGPTL3 expression in compound-treated primary human hepatocytes; conditions: additional compounds (Table 13), linear fold change
Method in brief: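 Cryopreserved primary human hepatocytes from three donors, plated at 375,000 cells/well, switched to complete or modified maintenance medium, then dosed with compound (stocks at 1000× final) for about 18 h. Poly(A) mRNA was sequenced directionally, mapped to GRCh38 with STAR, and gene-level abundance (counts, FPKM) estimated with RSEM against GENCODE 24.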

FN1 = assay: RNA-seq of FN1 expression in compound-treated primary human hepatocytes; conditions: perturbed vs unperturbed, significance FPKM ≥1, log 2(fold change) ≥0.5, q-value ≤0.05
Description: (§1) Human hepatocytes were obtained from two donors from Massachusetts General Hospital, namely MGH54 and MGH63, and one donor from Lonza, namely HUM4111B. Cryopreserved hepatocytes were cultured in plating media for 16 hours, transferred to maintenance media for 4 hours. Cultured on serum-free media for 2 hours, then a compound was added. The hepatocytes were maintained on the serum-free media for 16 hours prior to gene expression analysis. Primary human hepatocytes were stored in the vapor phase of a liquid nitrogen freezer (about −130° C.).
(§2) Human hepatocytes cultured as described above were plated in 24-well format, adding 375,000 cells per well in a volume of 500 ul plating medium. Four hours before treatment, cells were washed with PBS and the medium was changed to either: fresh maintenance medium (complete) or modified maintenance medium.
(§3) Compound stocks were prepared at 1000× final concentration and added in a 2-step dilution to the medium to reduce risk of a compound precipitating out of solution when added to the cells, and to ensure reasonable pipetting volumes. One at a time, each compound was first diluted 10-fold in warm (about 37° C.) modified maintenance medium (initial dilution=ID), mixed by vortexing, and the ID was diluted 100-fold into the cell culture (e.g. 5.1 ul into 1 well of a 24-well plate containing 0.5 mL medium). The plate was mixed by carefully swirling and after all wells were treated and returned to the incubator overnight. If desired, separate plates/wells were treated with vehicle-only controls and/or positive controls. If using multi-well plates, controls were included on each plate. After about 18 hours, cells were harvested for further analysis, e.g., ChIP-seq, RNA-seq, ATAC-seq, etc.
(§4) This protocol is a modified version of the following protocols: MagMAX mirVana Total RNA Isolation Kit User Guide (Applied Biosystems #MAN0011131 Rev B.0), NEBNext Poly(A) mRNA Magnetic Isolation Module (E7490), and NEBNext Ultra Directional RNA Library Prep Kit for Illumina (E7420) (New England Biosystems #E74901).
(§5) The MagMAX mirVana kit instructions (the section titled “Isolate RNA from cells” on pages 14-17) were used for isolation of total RNA from cells in culture. Two hundred μl of Lysis Binding Mix was used per well of the multiwell plate containing adherent cells (usually a 24-well plate).
(§6) For mRNA isolation and library prep, the NEBNext Poly(A) mRNA Magnetic Isolation Module and Directional Prep kit was used. RNA isolated from cells above was quantified, and prepared in […] of each sample in 50 μl of nuclease-free water. This protocol may be run in microfuge tubes or in a 96-well plate.
All pass filter reads from each sample were mapped against the human genome (assembly GRCh38/GCA_000001405.15 “no alt” analysis set merged with hs38d1/GCA_000786075.2) using two pass mapping via STAR version 2.5.3a (alignment parameters alignIntronMin=20; alignIntronMax=1000000; outFilterMismatchNmax=999; outFilterMismatchNoverLmax=0.05; outFilterType=BySJout; outFilterMultimapNmax=20; alignSJoverhangMin=8; alignSJDBoverhangMin=1; alignMatesGapMax=1000000) (Dobin et al., Bioinformatics (2012) 29(1):15-21). Genomic alignments were converted to transcriptome alignments based on reference transcript annotations from the Human GENCODE Gene Set release 24 (Harrow et al., Genome Res. (2012) 22(9): 1760-1774). Using unique and multimapped transcriptomic alignments, gene-level abundance estimates were computed using RSEM version 1.3.0 (Li and Dewey, BMC Bioinformatics (2011) 12:323) in a strand-aware manner, and including confidence interval sampling calculations, to arrive at posterior mean estimates (PME) of abundances (counts and normalized FPKM—fragments per kilobase of exon per million mapped fragments) from the underlying Bayesian model. Standard QC were applied (read integrity, mapping statistics, library complexity, fragment bias) to remove unsatisfactory samples.

LECT2 = assay: RNA-seq of LECT2 expression in compound-treated primary human hepatocytes
Description: as §1, §2, §3, §4, §5, §6
Standard QC were applied (read integrity, mapping statistics, library complexity, fragment bias) to remove unsatisfactory samples. […] Log 2 fold change and significance values were computed using PME count data (with replicates explicitly modeled versus pan-experiment controls), median ratio normalized, using maximum likelihood estimation rather than maximum a posteriori, and disabling the use of Cook's distance cutoff when determining acceptable adjusted p-values. […] RNA-seq signals were also normalized by read depth and visualized using the UCSC browser.
To identify small molecules that modulate target gene expression, primary human hepatocytes were prepared as a monoculture, and at least one small molecule compound was applied to the cells.
RNA-seq was performed to determine the effects of the compounds on the expression of the target genes in hepatocytes. Fold change was calculated by dividing the level of expression in the cell system that had been perturbed by the level of expression in an unperturbed system. Changes in expression having a p-value ≤0.05 were considered significant.
Significance was defined as an FPKM ≥1, a log 2(fold change) ≥0.5, and a q-value of ≤0.05 for all targets except for CPOX.

JAG1 = assay: RNA-seq of JAG1 expression in compound-treated primary human hepatocytes; conditions: for JAG1 Fold Change (Log2): primary human hepatocytes; for Significant modulation of JAG1 (in words): summary of Table 6
Description: (§7) Human hepatocytes were obtained from two donors from Massachusetts General Hospital, namely MGH54 and MGH63, and one donor from Lonza, namely HUM4111B. Cryopreserved hepatocytes were cultured in plating media for 16 hours, transferred to maintenance media for 4 hours. Cultured on serum-free media for 2 hours, then a compound was added. The hepatocytes were maintained on the serum-free media for 16 hours prior to gene expression analysis. Primary human hepatocytes were stored in the vapor phase of a liquid nitrogen freezer (about -130° C.). Human hepatocytes cultured as described above were plated in 24-well format, adding 375,000 cells per well in a volume of 500 ul plating medium. Four hours before treatment, cells were washed with PBS and the medium was changed to either: fresh maintenance medium (complete) or modified maintenance medium. Compound stocks were prepared at 1000× final concentration and added in a 2-step dilution to the medium to reduce risk of a compound precipitating out of solution when added to the cells, and to ensure reasonable pipetting volumes. […] The plate was mixed by carefully swirling and after all wells were treated and returned to the incubator overnight. If desired, separate plates/wells were treated with vehicle-only controls and/or positive controls. If using multi-well plates, controls were included on each plate. After about 18 hours, cells were harvested for further analysis, e.g., ChIP-seq, RNA-seq, ATAC-seq, etc. This protocol is a modified version of the following protocols: MagMAX mirVana Total RNA Isolation Kit User Guide (Applied Biosystems #MAN0011131 Rev B.0), NEBNext Poly(A) mRNA Magnetic Isolation Module ([…]), and NEBNext Ultra Directional RNA Library Prep Kit for Illumina ([…]) (New England Biosystems #E74901). […] Two hundred μl of Lysis Binding Mix was used per well of the multiwell plate containing adherent cells (usually a 24-well plate). For mRNA isolation and library prep, the NEBNext Poly(A) mRNA Magnetic Isolation Module and Directional Prep kit was used. RNA isolated from cells above was quantified, and prepared in […] of each sample in 50 μl of nuclease-free water. This protocol may be run in microfuge tubes or in a 96-well plate. […] Genomic alignments were converted to transcriptome alignments based on reference transcript annotations from the Human GENCODE Gene Set release 24 (Harrow et al., Genome Res. […] Standard QC were applied (read integrity, mapping statistics, library complexity, fragment bias) to remove unsatisfactory samples. Differential gene expression was computed using the negative binomial model implemented by DESeq2 version 1.16.1 (Love et al., Genome Biol. (2014) 15(12):550). […] RNA-seq signals were also normalized by read depth and visualized using the UCSC browser. To identify small molecules that modulate target gene expression, primary human hepatocytes were prepared as a monoculture, and at least one small molecule compound was applied to the cells. RNA-seq was performed to determine the effects of the compounds on the expression of the target genes in hepatocytes. Fold change was calculated by dividing the level of expression in the cell system that had been perturbed by the level of expression in an unperturbed system.

NOTCH2 = assay: RNA-seq of NOTCH2 expression in compound-treated primary human hepatocytes; conditions: for NOTCH2 Fold Change (Log2): primary human hepatocytes; for Significant modulation of NOTCH2 (in words): summary of Table 6
Description: as §7

UGT1A1 = assay: RNA-seq of UGT1A1 expression in compound-treated primary human hepatocytes
Method in brief: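 Cryopreserved primary human hepatocytes from three donors were plated in 24-well format, then treated with compound diluted from 1000× stocks in serum-free maintenance medium for about 16–18 h. Poly(A) RNA-seq log2 fold change was computed against vehicle/pan-experiment controls. Significance required FPKM ≥1, log2FC ≥0.5 and q ≤0.05.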

| Molecule | ANGPTL3-LINEAR FOLD CHANGE (ANGPTL3) | FN1 Fold Change (Log2) (FN1) | LECT2 Fold Change (Log2) (LECT2) | further results |
| --- | --- | --- | --- | --- |
| CN1CCN(S(=O)(=O)c2ccc(-c3cnc(N)c(C(=O)Nc4cccnc4)n3)cc2)CC1 [AZD2858] | 0.3186 | −1.23 Log2 |  |  |
| CN1CCN(CCCN2c3ccccc3Sc3ccc(C(F)(F)F)cc32)CC1 [TFP] | 0.2832 |  | −0.91 Log2 |  |
| Cc1c(C(=O)NN2CCCCC2)nn(-c2ccc(Cl)cc2Cl)c1-c1ccc(Cl)cc1 [Rimonabant] | 0.4538 | −0.76 Log2 | −0.81 Log2 |  |
| C=C1/C(=C\C=C2/CCC[C@]3(C)[C@@H]([C@H](C)CCCC(C)(C)O)CC[C@@H]23)C[C@@H](O)C[C@@H]1O [Calcitriol] | 0.483 | −0.79 Log2 | −1.82 Log2 |  |
| CCN(CC)CCN(Cc1ccc(-c2ccc(C(F)(F)F)cc2)cc1)C(=O)Cn1c(SCc2ccc(F)cc2)nc(=O)c2c1CCC2 [Darapladib] | 0.4569 |  | −0.55 Log2 |  |
| CCCC(=O)O[C@@H]1[C@@H](C)[C@@]2(O)[C@@H](C=C(CO)C[C@]3(O)C(=O)C(C)=C[C@@H]23)[C@@H]2C(C)(C)[C@]12OC(=O)CCC [Phorbol 12,13-dibutyrate] |  |  | −0.65 Log2 |  |
| 740 Y-P |  |  | −0.62 Log2 | JAG1 Fold Change (Log2) (JAG1): 0 Log2; NOTCH2 Fold Change (Log2) (NOTCH2): 0.66 Log2; Significant modulation of NOTCH2 (in words) (NOTCH2): significantly modulate only NOTCH2 |
| O=[N+]([O-])c1ccc(Sc2cccc[n+]2[O-])c2nonc12 [NSC228155] |  |  | −0.74 Log2 |  |
| CCOC(=O)N1c2ccc(C(F)(F)F)cc2[C@@H](N(Cc2cc(C(F)(F)F)cc(C(F)(F)F)c2)C(=O)OC)C[C@H]1CC [Torcetrapib] |  |  | −0.86 Log2 | JAG1 Fold Change (Log2) (JAG1): 0.68 Log2; Significant modulation of JAG1 (in words) (JAG1): significantly modulate both JAG1 and NOTCH2; NOTCH2 Fold Change (Log2) (NOTCH2): 0.76 Log2; Significant modulation of NOTCH2 (in words) (NOTCH2): significantly modulate both JAG1 and NOTCH2 |
| COc1nc(N)nc2c1ncn2[C@@H]1O[C@H](COP(=O)(N[C@@H](C)C(=O)OCC(C)(C)C)Oc2cccc3ccccc23)[C@@H](O)[C@@]1(C)O (stereo partly drawn) [bms-986094 (inx-189)] |  | −1.00 Log2 |  |  |
| c1ccc2c(-c3cnn4cc(-c5ccc(N6CCNCC6)cc5)cnc34)ccnc2c1 [LDN193189] | 0.4204 | −0.87 Log2 |  | JAG1 Fold Change (Log2) (JAG1): 2.07 Log2; Significant modulation of JAG1 (in words) (JAG1): significantly modulate only JAG1; NOTCH2 Fold Change (Log2) (NOTCH2): 0 Log2 |
| C[C@]12CC[C@@H]3c4ccc(O)cc4CC[C@H]3[C@@H]1CC[C@@H]2O [b-Estradiol] |  |  | −0.90 Log2 |  |
| CNC1CCC(N(Cc2cccc(-c3ccncc3)c2)C(=O)c2sc3ccccc3c2Cl)CC1 (stereo not drawn) [Smoothened Agonist] | 0.3035 | −1.95 Log2 |  |  |
| Cc1[nH]c(/C=C2\C(=O)Nc3ccc(S(=O)(=O)Cc4c(Cl)cccc4Cl)cc32)c(C)c1C(=O)N1CCC[C@@H]1CN1CCCC1 [PHA-665752] |  | −1.14 Log2 |  |  |
| COc1cc2c(Oc3ccc4[nH]c(C)cc4c3F)ncnc2cc1OCCCN1CCCC1 [Cediranib] | 0.4323 | −0.79 Log2 |  |  |
| CCN1CCN(c2ccc(Nc3cc(N(C)C(=O)Nc4c(Cl)c(OC)cc(OC)c4Cl)ncn3)cc2)CC1 [BGJ398] | 0.3368 | −1.36 Log2 |  |  |
| COc1cc2nccc(Oc3ccc(NC(=O)Nc4cc(C)on4)c(Cl)c3)c2cc1OC [Tivozanib] | 0.4204 | −0.8 Log2 |  |  |
| COc1nc(C)cnc1NS(=O)(=O)c1cccnc1-c1ccc(-c2nnco2)cc1 [Zibotentan] |  |  | −0.83 Log2 | JAG1 Fold Change (Log2) (JAG1): 0 Log2; NOTCH2 Fold Change (Log2) (NOTCH2): 0.94 Log2; Significant modulation of NOTCH2 (in words) (NOTCH2): significantly modulate only NOTCH2 |
| CC(C)c1nc(CN(C)C(=O)N[C@H](C(=O)N[C@@H](Cc2ccccc2)C[C@H](O)[C@H](Cc2ccccc2)NC(=O)OCc2cncs2)C(C)C)cs1 [Ritonavir] |  |  | −1.00 Log2 | UGT1A1 Fold Change (Log2) (UGT1A1): 0.63 Log2 |
